Literature values in patent publication US20260102357A1, “Sulfur-Containing Ionizable Lipids for the Delivery of Therapeutic Agents” (NanoVation Therapeutics Inc., priority 2022, published 2026).

Conditions: delivery of siRNA; fold less siRNA than KC2

With `CCCCC/C=C\C/C=C\CCCCCCCCC(CCCCCCCC/C=C\C/C=C\CCCCC)OC(=O)CCCN(C)C` [MC3, DLin-MC3-DMA] as the compound, how does the “siRNA required relative to KC2” value read?
The value was “about 3 times less”.
